Columns and labels:
HL-60(TB) = assay: NCI 60 cell line screen (SRB), Leukemia; format: cell-based; details: for Log10TGI: PG=0
UACC-62 = assay: NCI 60 cell line screen (SRB), Melanoma; format: cell-based; details: for Log10TGI: PG=0
HT29 = assay: NCI 60 cell line screen (SRB), Colon Cancer; format: cell-based; details: for Log10TGI: PG=0
MDA-N = assay: NCI 60 cell line screen (SRB), Breast Cancer; format: cell-based; details: for Log10TGI: PG=0
SK-MEL-28 = assay: NCI 60 cell line screen (SRB), Melanoma; format: cell-based; details: for Log10TGI: PG=0
[1] = tested on: P. vivax and P. falciparum; details: 2099 cases of malaria, different dosage forms; cited from earlier work
P. falciparum = details: two Hanian strains; compared with chloroquine; cited from earlier work
[2] = cited from earlier work
P. berghei = details: P. berghei-infected mice; parasitemia 90 percent suppressed; cited from earlier work
[3] = tested on: chloroquine-sensitive P. falciparum (NF54); assay: Antimalarial screening, [3H]hypoxanthine incorporation; format: cell-based, Plasmodium falciparum; details: Plasmodium falciparum, NF54, chloroquine-sensitive P. falciparum (NF54); read-out: IC50
Protocol: Activity was determined by measuring the incorporation of [^3H]hypoxanthine, by the methods of Desjardins and Milhouse, with the following modifications, see […].; Haynes, […]. Antimicrob. Agents Chemother., 16: 710 (1979); Milhous, W. K.; Weatherly, […].; Antimicrob. Agents Chemother., 27: 525 (1985). […] Calbiochem #391338), 27 mM NaHCO3 (Gibco BRL # 11810-025), and 10% heat-inactivated human type O+serum (Interstate Blood Bank, Inc.), under 3% O2, 4% CO2, and 93% N2-Parasitemia was maintained at 0.05-3% and doubling time at approximately 15 hours by twice weekly change of medium and replenishment with fresh erythrocytes. […] Sigma-Aldrich #27,043-1). DMSO solutions were diluted 500-fold in medium, serially diluted in 0.2% DMSO in medium (to maintain constant solvent concentration), then 100 μL aliquots were pipetted into microtiter plate wells (Costar3595). […] Cells were harvested (Brandel MB-48R) onto GF-C glass filters (Brandel). The filters were washed five times with 3 mL water per sample spot, dried under a heat lamp, and counted (Beckman Model LS-6500) in scintillation cocktail (ICN Cytoscint). Decays per minute (dpm) values were downloaded and analyzed (Power Macintosh 7200/90; Microsoft Excel 5.0), to yield the mean and standard deviation at each drug concentration.

60 cell line panel = details: 60 lines, nine subpanels; later anticancer studies; cited from earlier work
P388 leukemia = details: NCI Report on NSC 369397; cited from earlier work

CC1=C(C=Cc2cccc(C=CC3=C(C)C4CCC(C)C5CCC6(C)OOC45C(O3)O6)c2)OC2OC3(C)CCC4C(C)CCC1C24OO3 (stereo not drawn) [VII-h]
Log10TGI (HL-60(TB)): −7.59 log10M
Log10GI50 (HL-60(TB); PG=+50): −7.59 log10M
Log10GI50 (HL-60(TB); Table IV (LC50, PG=−50)): >−4.00 log10M
Log10TGI (UACC-62): >−4.00 log10M
Log10GI50 (UACC-62; PG=+50): −6.91 log10M
Log10GI50 (UACC-62; Table IV (LC50, PG=−50)): >−4.00 log10M
Log10TGI (HT29): >−4.00 log10M
Log10GI50 (HT29; PG=+50): −7.37 log10M
Log10GI50 (HT29; Table IV (LC50, PG=−50)): >−4.00 log10M
Log10TGI (MDA-N): −5.42 log10M
Log10GI50 (MDA-N; PG=+50): −7.33 log10M
Log10GI50 (MDA-N; Table IV (LC50, PG=−50)): >−4.00 log10M

CC1=C(C=Cc2cccc(C=CC3=C(C)C4CCC(C)C5CCC6(C)OOC45C(O3)O6)c2)OC2OC3(C)CCC4C(C)CCC1C24OO3 (stereo not drawn) [VII-g]
Log10TGI (HL-60(TB)): −7.20 log10M
Log10GI50 (HL-60(TB); PG=+50): −7.20 log10M
Log10GI50 (HL-60(TB); Table IV (LC50, PG=−50)): >−4.00 log10M
Log10TGI (UACC-62): >−4.00 log10M
Log10GI50 (UACC-62; PG=+50): −5.46 log10M
Log10GI50 (UACC-62; Table IV (LC50, PG=−50)): >−4.00 log10M
Log10TGI (HT29): >−4.00 log10M
Log10GI50 (HT29; PG=+50): −6.88 log10M
Log10GI50 (HT29; Table IV (LC50, PG=−50)): >−4.00 log10M
Log10TGI (MDA-N): −4.83 log10M
Log10GI50 (MDA-N; PG=+50): −6.82 log10M
Log10GI50 (MDA-N; Table IV (LC50, PG=−50)): >−4.00 log10M

CC1=C(C=Cc2cccc(C=CC3=C(C)C4CCC(C)C5CCC6(C)OOC45C(O3)O6)c2)OC2OC3(C)CCC4C(C)CCC1C24OO3 (stereo not drawn) [VII-f]
Log10TGI (HL-60(TB)): −6.71 log10M
Log10GI50 (HL-60(TB); PG=+50): −6.71 log10M
Log10GI50 (HL-60(TB); Table IV (LC50, PG=−50)): >−4.00 log10M
Log10TGI (UACC-62): >−4.00 log10M
Log10GI50 (UACC-62; PG=+50): −4.90 log10M
Log10GI50 (UACC-62; Table IV (LC50, PG=−50)): >−4.00 log10M
Log10TGI (HT29): >−4.00 log10M
Log10GI50 (HT29; PG=+50): −5.90 log10M
Log10GI50 (HT29; Table IV (LC50, PG=−50)): >−4.00 log10M
Log10TGI (SK-MEL-28): >−4.00 log10M
Log10GI50 (SK-MEL-28; PG=+50): −4.00 log10M
Log10GI50 (SK-MEL-28; Table IV (LC50, PG=−50)): >−4.00 log10M
Log10TGI (MDA-N): −4.18 log10M
Log10GI50 (MDA-N; PG=+50): −5.74 log10M
Log10GI50 (MDA-N; Table IV (LC50, PG=−50)): >−4.00 log10M

C[C@@H]1CC[C@H]2[C@@H](C)C(=O)O[C@@H]3O[C@]4(C)CC[C@@H]1[C@]32OO4 [Artemisinin, artemisinin]
clinical outcome [1]: clinical cure of all patients
potency in words (P. falciparum): comparable to that of chloroquine
solubility in water in words [2]: insolubility in water
SD90 (P. berghei): 6.20 mg/kg
IC50 [3]: 10 nM
anticancer activity in words (60 cell line panel): very little anticancer activity
Log10TGI (HL-60(TB)): −4.00 log10M
Log10GI50 (HL-60(TB); PG=+50): −4.26 log10M
Log10GI50 (HL-60(TB); Table IV (LC50, PG=−50)): >−4.00 log10M
Log10TGI (UACC-62): >−4.00 log10M
Log10GI50 (UACC-62; PG=+50): >−4.00 log10M
Log10GI50 (UACC-62; Table IV (LC50, PG=−50)): >−4.00 log10M
activity in words (P388 leukemia): inactive
Log10TGI (HT29): >−4.00 log10M
Log10GI50 (HT29; PG=+50): >−4.00 log10M
Log10GI50 (HT29; Table IV (LC50, PG=−50)): >−4.00 log10M
Log10TGI (SK-MEL-28): >−4.00 log10M
Log10GI50 (SK-MEL-28; PG=+50): >−4.00 log10M
Log10GI50 (SK-MEL-28; Table IV (LC50, PG=−50)): >−4.00 log10M
Log10TGI (MDA-N): −4.00 log10M
Log10GI50 (MDA-N; PG=+50): −4.06 log10M
Log10GI50 (MDA-N; Table IV (LC50, PG=−50)): >−4.00 log10M

CC(=O)O[C@H]1C(=O)[C@@]2(C)[C@H]([C@H](OC(=O)c3ccccc3)[C@]3(O)C[C@H](OC(=O)[C@H](O)[C@@H](NC(=O)c4ccccc4)c4ccccc4)C(C)=C1C3(C)C)[C@]1(OC(C)=O)CO[C@@H]1C[C@@H]2O [Paclitaxel, paclitaxel, reference compound]
Log10TGI (HL-60(TB)): −11.57 log10M
Log10GI50 (HL-60(TB); PG=+50): −11.57 log10M
Log10GI50 (HL-60(TB); Table IV (LC50, PG=−50)): >−4.53 log10M
Log10TGI (UACC-62): −4.71 log10M
Log10GI50 (UACC-62; PG=+50): −10.46 log10M
Log10GI50 (UACC-62; Table IV (LC50, PG=−50)): −4.19 log10M
Log10GI50 (HT29; PG=+50): <-13.00 log10M
Log10GI50 (HT29; Table IV (LC50, PG=−50)): −4.39 log10M
Log10TGI (MDA-N): −6.32 log10M
Log10GI50 (MDA-N; PG=+50): −9.31 log10M
Log10GI50 (MDA-N; Table IV (LC50, PG=−50)): >−4.00 log10M

Source: patent US20020055528A1, “Artemisinin analogs having antimalarial, antiproliferative, and antitumor activities and chemoselective methods of making the same” (priority 1999, published 2002)
